Data from paper PMC12511557, “WEE1 inhibitors synergise with mRNA translation defects via activation of the kinase GCN2” (Nature Communications, 2025).

Target: T1, GCN2 (Homo sapiens, UniProt Q9P2K8)
T1 construct: gene EIF2AK4; recombinant human GCN2, N-terminal twin StrepII tag, expressed in Sf9 cells
Assay: ADP-Glo kinase assay with purified GCN2 (biphasic: activation EC50 […], inhibition IC50 […]); supported by thermal unfolding (-2.[…] °C shift) and in vitro autophosphorylation
Format: biochemical

T1 sequence (Q9P2K8 whole entry): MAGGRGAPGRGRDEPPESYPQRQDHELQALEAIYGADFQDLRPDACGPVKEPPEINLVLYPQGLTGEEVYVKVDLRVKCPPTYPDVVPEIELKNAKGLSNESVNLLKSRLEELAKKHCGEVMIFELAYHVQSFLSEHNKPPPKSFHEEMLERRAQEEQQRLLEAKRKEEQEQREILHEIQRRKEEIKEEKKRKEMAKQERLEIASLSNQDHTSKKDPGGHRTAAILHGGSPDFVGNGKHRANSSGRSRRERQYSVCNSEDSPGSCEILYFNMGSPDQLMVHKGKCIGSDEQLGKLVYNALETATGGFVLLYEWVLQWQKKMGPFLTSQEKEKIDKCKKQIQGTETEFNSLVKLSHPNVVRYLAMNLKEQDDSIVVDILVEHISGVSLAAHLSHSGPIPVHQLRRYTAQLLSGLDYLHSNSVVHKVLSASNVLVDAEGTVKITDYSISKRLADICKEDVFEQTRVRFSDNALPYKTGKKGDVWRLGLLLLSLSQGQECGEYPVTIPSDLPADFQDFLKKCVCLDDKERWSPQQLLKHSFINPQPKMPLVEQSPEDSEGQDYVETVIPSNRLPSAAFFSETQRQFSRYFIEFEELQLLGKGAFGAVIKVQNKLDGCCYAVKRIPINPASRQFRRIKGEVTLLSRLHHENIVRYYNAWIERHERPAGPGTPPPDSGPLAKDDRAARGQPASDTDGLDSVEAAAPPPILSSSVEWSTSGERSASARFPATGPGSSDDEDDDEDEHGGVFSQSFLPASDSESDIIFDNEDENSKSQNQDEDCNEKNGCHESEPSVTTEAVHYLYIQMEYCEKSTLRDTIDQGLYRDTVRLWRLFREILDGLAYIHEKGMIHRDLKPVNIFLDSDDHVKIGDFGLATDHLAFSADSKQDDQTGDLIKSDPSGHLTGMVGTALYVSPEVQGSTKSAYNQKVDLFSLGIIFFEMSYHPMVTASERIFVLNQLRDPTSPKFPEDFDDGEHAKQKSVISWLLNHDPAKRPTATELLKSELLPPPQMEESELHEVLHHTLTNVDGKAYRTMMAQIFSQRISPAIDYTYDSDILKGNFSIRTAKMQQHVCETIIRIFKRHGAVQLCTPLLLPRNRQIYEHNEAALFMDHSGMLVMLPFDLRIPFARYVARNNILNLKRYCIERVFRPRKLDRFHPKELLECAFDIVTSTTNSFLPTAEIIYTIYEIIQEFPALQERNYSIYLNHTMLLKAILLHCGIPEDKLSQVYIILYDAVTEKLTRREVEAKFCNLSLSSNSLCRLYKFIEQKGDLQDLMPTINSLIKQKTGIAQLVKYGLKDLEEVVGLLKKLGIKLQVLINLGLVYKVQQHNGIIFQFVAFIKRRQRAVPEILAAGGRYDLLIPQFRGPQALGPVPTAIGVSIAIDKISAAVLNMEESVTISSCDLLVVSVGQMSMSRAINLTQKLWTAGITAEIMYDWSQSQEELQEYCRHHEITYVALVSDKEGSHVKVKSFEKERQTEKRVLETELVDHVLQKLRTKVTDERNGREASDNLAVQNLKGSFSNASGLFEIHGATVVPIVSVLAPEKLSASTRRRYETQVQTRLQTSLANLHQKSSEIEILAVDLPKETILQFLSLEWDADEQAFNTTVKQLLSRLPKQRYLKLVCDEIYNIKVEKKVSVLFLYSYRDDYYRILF

Molecule `C=CCn1c(=O)c2cnc(Nc3ccc(N4CCN(C)CC4)cc3)nc2n1-c1cccc(C(C)(C)O)n1` [AZD1775] has an EC50 of 16 nM.
